{"source": "patent US20120315654A1", "about": "“COMPOSITIONS AND METHODS FOR DETECTING CARDIOTOXICITY” (DUKE UNIVERSITY, priority 2011, published 2012)", "key": {"[1]": {"test_system": "HL-1 cells", "test": "LDH release cytotoxicity assay in HL-1 cells", "format": "cell-based, murine", "method": "(§1) Toxicity was assessed by quantifying the amount of lactate dehydrogenase (LDH) present in the culture media using PROMEGA's CYTOTOX96 NON-RADIOACTIVE ASSAY (PROMEGA, Madison, Wis.). Maximum cytotoxicity was determined by measuring the amount of LDH released in cells incubated with the kit's lysis buffer. The percentage of LDH released after DOX treatment was compared with that of controls."}, "[2]": {"biological_target": "T1, Cr transporter (CrT) (Rattus norvegicus, UniProt P28570)", "T1 construct": "measuring ^14C—Cr uptake in primary RNCMs; endogenous in cells; host or cells: primary rat neonatal cardiomyocytes (RNCM)", "T1 sequence (P28570 1-635)": "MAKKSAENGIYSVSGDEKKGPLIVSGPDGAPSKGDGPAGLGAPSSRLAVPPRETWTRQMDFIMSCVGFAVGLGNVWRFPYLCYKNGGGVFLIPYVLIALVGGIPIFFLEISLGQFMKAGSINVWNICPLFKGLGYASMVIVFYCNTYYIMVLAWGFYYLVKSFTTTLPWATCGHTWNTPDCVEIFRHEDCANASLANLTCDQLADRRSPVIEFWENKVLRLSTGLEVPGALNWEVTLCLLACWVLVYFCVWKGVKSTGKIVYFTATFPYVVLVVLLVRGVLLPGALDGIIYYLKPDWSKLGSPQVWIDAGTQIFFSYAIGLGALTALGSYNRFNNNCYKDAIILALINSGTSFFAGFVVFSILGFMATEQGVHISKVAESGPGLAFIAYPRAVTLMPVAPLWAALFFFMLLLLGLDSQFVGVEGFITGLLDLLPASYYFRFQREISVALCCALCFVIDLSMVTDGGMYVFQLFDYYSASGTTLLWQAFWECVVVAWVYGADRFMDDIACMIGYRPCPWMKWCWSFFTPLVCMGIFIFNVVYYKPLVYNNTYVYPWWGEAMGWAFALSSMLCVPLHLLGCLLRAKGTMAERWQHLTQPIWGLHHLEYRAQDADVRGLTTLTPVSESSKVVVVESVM", "test": "14C-Cr transport in rat neonatal cardiomyocytes (RNCM) after DOX incubation", "format": "cell-based", "conditions": "100 nmol/L DOX", "method": "Cells were plated on tissue culture dishes pre-coated with gelatin/fibronectin and allowed to grow in M199 media (INVITROGEN, Carlsbad, Calif.) containing 2% serum before experimentation. All animals were treated according to protocols approved by Duke University's Institutional Animal Care and Use Committee. HL-1 cells (passages 50 to 75), were plated onto fibronectin/gelatin-coated plates and cultured in CLAYCOMB media (SIGMA, St. Louis, Mo.) supplemented with 10% fetal bovine serum, 100 units/ml penicillin, 100 μg/ml streptomycin, 0.1 mM norepinephrine, and 2 mmol/L L-glutamine, as described previously (White S. M., et al., Am J Physiol Heart Circ Physiol 286: H823-829, 2004). The cultures were maintained in a humidified atmosphere of 5% CO2 at 37° C.\nCr transport assays were performed after growth in control media for 0, 4, 12, 24 or 48 hrs.\nCells used for Cr transport assays were cultured in 24-well plates coated with fibronectin and gelatin. […]\nFor assays that measured Cr transport kinetics, the final Cr content in the uptake buffer ranged from 5 to 305 μmol/L. Uptake was terminated by aspiration of the radiolabeled solution, followed by 3 washes with ice-cold choline buffer. […] Cr transport was normalized to the protein concentration measured using the bicinchoninic acid (BCA) protein assay (PIERCE BIOTECHNOLOGY, Rockford, Ill.). […]"}, "[3]": {"test_system": "RNCM", "test": "LDH release cytotoxicity assay in RNCM", "format": "cell-based, rat", "method": "as §1"}, "[4]": {"conditions": "cited from earlier work"}, "[5]": {"test_system": "RNCM", "test": "Caspase 3/7 apoptosis assay in RNCM", "format": "cell-based, rat", "conditions": "100 nmol/L DOX, up to 48 hrs", "method": "Apoptosis was measured using PROMEGA's CASPASE-GLO 3/7 ASSAY SYSTEM (PROMEGA). Briefly, attached cells in a single 24-well plate were washed 3 times with ice-cold PBS and resuspended in 500 μl of 1% TRITON-X100; 10% glycerol; 2 mmol/L EDTA; 137 mmol/L NaCl; and 20 mmol/L Tris, pH 8.0. A mixture of 25 μL of lysate and 25 μL of caspase 3/7-assay reagent was prepared, and sequential luminescent readings were taken every 15 min for 4 hrs. Peak signal readings were normalized to protein content and plotted."}}}
{"compound": "COc1cccc2c1C(=O)c1c(O)c3c(c(O)c1C2=O)C[C@@](O)(C(=O)CO)C[C@@H]3O[C@H]1C[C@H](N)[C@H](O)[C@H](C)O1", "note": "[DOX, Doxorubicin]", "values": [{"measurement": "LDH release", "setting": "[1]; HL-1, 50 nmol/L DOX, through 48 hrs", "result": "not significantly elevated"}, {"measurement": "Increase in LDH release compared with controls", "setting": "[1]; HL-1, 100 nmol/L DOX, 24 hrs", "result": "approximately 10%"}, {"measurement": "Decrease in Cr uptake", "setting": "[2]; 32 hrs before the 36 hrs point (FIG. 1A)", "result": 37, "unit": "%"}, {"measurement": "Cr transport (14C-Cr uptake)", "setting": "[2]; within 2-4 hrs of exposure, vs control media", "result": "decreased significantly"}, {"measurement": "LDH release", "setting": "[3]; 50 nmol/L DOX, through 48 hrs", "result": "not significantly elevated"}, {"measurement": "Increase in LDH release compared with control", "setting": "[3]; 100 nmol/L DOX, 36 hrs", "result": 7, "unit": "%"}, {"measurement": "Average steady-state concentration typically measured in patient plasma", "setting": "[4]", "result": 100, "unit": "nmol/L"}, {"measurement": "Apoptosis (caspase 3/7 activation)", "setting": "[5]", "result": "No increase"}]}
